Where only a bound is given, the exact number is not on record here.

Common to all, as to experiment: KINOMEscan
Common to all, as to format: binding

In test [1] the target is T1, PKAC-beta (Homo sapiens, UniProt P22694).
T1 construct: purchased Eurofins DiscoverX KINOMEscan
Conditions: read-out: % control activity remaining.

For test [2], the target named is T2, EPHA8 (Homo sapiens, UniProt P29322).
T2 construct: purchased Eurofins DiscoverX KINOMEscan
T2 sequence (P29322 28-1005): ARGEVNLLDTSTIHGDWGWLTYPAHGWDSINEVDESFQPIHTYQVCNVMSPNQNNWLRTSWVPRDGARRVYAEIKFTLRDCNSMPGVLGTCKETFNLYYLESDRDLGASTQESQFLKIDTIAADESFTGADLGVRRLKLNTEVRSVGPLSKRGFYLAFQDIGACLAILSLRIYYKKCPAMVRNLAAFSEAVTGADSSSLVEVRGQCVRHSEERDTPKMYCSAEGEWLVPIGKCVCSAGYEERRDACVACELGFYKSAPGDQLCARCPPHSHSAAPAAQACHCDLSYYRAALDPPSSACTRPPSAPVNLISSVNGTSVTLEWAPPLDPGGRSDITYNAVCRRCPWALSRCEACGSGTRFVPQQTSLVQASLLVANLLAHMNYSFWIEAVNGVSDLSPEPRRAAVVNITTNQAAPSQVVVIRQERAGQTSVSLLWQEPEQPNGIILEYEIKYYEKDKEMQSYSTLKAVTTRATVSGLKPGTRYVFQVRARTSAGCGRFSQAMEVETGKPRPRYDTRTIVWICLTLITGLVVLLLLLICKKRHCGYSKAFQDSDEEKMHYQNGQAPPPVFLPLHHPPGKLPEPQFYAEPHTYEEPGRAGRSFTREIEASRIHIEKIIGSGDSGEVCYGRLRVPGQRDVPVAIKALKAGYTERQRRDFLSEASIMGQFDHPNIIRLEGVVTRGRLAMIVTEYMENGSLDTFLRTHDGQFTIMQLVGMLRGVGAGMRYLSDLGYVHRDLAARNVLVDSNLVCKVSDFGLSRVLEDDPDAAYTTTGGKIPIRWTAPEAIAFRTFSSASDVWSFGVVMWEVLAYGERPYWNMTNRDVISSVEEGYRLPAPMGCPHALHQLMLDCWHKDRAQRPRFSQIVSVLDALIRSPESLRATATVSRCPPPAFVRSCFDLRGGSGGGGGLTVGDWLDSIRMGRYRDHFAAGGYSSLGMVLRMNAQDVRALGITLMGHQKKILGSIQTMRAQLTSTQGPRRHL
To be noted: read-out: % control activity remaining.

Test [3] has as its target T3, ABL1(F317I)-phosphorylated (Homo sapiens, UniProt P00519, F317I).
T3 construct: purchased Eurofins DiscoverX KINOMEscan
Conditions: read-out: % control activity remaining.

Test [4] addresses T4, HIPK2 (Homo sapiens, UniProt Q9H2X6).
T4 construct: purchased Eurofins DiscoverX KINOMEscan
To be noted: read-out: % control activity remaining.

Test [5] deals with T5, EGFR(L861Q) (Homo sapiens, UniProt P00533, L861Q).
T5 construct: purchased Eurofins DiscoverX KINOMEscan
To be noted: read-out: % control activity remaining.

Test [6] concerns the target T6, CDK11 (Homo sapiens, UniProt Q9BWU1).
T6 construct: purchased Eurofins DiscoverX KINOMEscan
To be noted: read-out: % control activity remaining.

The target in test [7] is T7, PLK1 (Homo sapiens, UniProt P53350).
T7 construct: purchased Eurofins DiscoverX KINOMEscan
T7 sequence (P53350 whole entry): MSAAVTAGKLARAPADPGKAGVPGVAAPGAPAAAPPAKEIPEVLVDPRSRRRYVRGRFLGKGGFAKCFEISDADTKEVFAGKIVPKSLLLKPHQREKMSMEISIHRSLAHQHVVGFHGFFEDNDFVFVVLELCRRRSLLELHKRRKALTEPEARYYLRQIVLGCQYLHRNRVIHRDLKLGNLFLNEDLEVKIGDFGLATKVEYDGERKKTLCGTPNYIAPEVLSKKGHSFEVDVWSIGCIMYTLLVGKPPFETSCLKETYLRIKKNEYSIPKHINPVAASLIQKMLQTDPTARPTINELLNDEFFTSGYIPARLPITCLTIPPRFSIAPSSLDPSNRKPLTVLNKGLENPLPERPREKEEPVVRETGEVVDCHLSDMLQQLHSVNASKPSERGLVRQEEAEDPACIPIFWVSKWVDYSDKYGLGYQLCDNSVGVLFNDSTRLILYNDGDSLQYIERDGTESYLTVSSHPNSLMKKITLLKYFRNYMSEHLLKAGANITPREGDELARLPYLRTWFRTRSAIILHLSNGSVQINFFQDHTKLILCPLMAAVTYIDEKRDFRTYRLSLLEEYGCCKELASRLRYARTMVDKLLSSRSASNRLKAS
To be noted: read-out: % control activity remaining.

Test [8] deals with T8, WNK1 (Homo sapiens, UniProt Q9H4A3).
T8 construct: purchased Eurofins DiscoverX KINOMEscan
Conditions: read-out: % control activity remaining.

Test [9] concerns the target T9, BRSK1 (Homo sapiens, UniProt Q8TDC3).
T9 construct: purchased Eurofins DiscoverX KINOMEscan
T9 sequence (Q8TDC3 1-778): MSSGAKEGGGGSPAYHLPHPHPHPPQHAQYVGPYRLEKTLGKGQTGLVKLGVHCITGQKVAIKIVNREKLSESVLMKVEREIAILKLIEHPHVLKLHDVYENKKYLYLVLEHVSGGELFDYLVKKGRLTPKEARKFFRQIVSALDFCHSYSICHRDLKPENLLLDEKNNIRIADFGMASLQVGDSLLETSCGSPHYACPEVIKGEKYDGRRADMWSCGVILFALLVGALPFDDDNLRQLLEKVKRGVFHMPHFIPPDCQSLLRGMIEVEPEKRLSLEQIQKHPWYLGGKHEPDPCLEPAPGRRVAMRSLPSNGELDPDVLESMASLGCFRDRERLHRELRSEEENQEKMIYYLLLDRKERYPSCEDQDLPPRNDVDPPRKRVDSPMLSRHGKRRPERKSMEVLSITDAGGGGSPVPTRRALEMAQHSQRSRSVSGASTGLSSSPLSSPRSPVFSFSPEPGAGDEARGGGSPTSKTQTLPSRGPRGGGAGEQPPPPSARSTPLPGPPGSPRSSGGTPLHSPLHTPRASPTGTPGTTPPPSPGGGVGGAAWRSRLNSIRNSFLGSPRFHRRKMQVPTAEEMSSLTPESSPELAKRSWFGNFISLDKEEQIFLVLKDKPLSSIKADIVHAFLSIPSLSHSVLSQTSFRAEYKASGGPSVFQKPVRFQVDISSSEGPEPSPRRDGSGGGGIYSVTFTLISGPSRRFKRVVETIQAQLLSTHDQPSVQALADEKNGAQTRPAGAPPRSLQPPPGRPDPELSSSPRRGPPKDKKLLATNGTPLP
Conditions: read-out: % control activity remaining.

The target of test [10] is T10, PDGFRB (Homo sapiens, UniProt P09619).
T10 construct: purchased Eurofins DiscoverX KINOMEscan
T10 sequence (P09619 33-1106): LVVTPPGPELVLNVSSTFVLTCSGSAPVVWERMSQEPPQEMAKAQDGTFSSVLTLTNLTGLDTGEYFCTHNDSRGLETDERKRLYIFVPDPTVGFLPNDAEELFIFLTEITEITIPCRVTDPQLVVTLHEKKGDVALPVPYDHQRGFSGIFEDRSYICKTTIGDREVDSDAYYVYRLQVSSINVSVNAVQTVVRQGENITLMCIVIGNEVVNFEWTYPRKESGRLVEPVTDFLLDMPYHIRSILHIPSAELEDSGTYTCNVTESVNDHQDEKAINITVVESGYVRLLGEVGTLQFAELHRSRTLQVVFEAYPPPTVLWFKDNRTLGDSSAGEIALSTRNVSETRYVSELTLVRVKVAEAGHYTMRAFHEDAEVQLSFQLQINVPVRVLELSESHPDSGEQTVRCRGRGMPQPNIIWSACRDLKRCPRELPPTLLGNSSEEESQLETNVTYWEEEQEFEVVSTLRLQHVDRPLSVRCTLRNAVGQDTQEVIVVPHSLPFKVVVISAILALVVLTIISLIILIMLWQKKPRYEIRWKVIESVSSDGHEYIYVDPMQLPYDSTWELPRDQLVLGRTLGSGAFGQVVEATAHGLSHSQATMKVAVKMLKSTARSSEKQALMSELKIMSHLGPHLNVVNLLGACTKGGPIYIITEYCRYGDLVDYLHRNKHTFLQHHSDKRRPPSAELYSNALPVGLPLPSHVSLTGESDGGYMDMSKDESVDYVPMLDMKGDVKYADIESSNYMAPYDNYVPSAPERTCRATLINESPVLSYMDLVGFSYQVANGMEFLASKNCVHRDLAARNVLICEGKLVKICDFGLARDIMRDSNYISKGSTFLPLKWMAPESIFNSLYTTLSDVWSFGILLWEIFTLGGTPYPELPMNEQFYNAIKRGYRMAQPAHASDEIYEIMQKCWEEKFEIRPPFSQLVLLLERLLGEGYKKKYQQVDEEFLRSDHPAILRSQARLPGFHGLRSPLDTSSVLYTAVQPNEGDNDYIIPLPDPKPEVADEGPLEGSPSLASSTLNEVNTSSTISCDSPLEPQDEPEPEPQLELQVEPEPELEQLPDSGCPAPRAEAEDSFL
To be noted: for remaining binding at 1 µM: read-out: % control activity remaining.

Test [11] deals with T11, EGFR(G719S) (Homo sapiens, UniProt P00533, G719S).
T11 construct: purchased Eurofins DiscoverX KINOMEscan
T11 sequence (P00533 25-1210 G719S limits assumed): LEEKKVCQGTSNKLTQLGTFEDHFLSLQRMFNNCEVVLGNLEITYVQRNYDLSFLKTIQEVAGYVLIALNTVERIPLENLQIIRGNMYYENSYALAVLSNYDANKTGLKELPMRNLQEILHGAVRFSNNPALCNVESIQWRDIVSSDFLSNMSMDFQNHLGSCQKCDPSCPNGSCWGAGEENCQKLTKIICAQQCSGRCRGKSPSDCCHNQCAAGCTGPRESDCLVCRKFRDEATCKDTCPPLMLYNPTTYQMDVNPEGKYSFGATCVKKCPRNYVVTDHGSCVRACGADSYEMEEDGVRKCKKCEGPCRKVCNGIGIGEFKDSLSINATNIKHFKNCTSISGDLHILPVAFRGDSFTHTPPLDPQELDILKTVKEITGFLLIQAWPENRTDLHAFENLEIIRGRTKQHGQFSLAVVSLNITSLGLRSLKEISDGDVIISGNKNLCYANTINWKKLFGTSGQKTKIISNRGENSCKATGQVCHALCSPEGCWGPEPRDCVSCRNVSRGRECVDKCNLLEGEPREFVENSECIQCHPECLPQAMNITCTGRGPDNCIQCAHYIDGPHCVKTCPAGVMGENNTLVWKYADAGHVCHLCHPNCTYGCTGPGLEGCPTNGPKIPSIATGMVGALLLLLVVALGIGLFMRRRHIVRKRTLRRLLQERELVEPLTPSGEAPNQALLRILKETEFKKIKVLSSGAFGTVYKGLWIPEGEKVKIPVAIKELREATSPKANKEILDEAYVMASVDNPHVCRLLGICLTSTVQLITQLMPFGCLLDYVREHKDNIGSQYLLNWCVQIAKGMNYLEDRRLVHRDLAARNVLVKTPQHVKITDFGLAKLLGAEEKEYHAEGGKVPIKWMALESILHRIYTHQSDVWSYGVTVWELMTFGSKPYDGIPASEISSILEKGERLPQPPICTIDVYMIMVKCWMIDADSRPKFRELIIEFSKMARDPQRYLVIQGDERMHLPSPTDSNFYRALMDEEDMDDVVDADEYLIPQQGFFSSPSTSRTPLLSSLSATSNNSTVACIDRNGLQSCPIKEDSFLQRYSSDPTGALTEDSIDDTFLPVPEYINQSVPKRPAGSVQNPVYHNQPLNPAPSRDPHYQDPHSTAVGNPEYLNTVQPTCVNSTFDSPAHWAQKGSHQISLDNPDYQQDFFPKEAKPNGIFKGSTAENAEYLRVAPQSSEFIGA
To be noted: read-out: % control activity remaining.

For test [12], the target named is T12, FGFR4 (Homo sapiens, UniProt P22455).
T12 construct: purchased Eurofins DiscoverX KINOMEscan
T12 sequence (P22455 22-802): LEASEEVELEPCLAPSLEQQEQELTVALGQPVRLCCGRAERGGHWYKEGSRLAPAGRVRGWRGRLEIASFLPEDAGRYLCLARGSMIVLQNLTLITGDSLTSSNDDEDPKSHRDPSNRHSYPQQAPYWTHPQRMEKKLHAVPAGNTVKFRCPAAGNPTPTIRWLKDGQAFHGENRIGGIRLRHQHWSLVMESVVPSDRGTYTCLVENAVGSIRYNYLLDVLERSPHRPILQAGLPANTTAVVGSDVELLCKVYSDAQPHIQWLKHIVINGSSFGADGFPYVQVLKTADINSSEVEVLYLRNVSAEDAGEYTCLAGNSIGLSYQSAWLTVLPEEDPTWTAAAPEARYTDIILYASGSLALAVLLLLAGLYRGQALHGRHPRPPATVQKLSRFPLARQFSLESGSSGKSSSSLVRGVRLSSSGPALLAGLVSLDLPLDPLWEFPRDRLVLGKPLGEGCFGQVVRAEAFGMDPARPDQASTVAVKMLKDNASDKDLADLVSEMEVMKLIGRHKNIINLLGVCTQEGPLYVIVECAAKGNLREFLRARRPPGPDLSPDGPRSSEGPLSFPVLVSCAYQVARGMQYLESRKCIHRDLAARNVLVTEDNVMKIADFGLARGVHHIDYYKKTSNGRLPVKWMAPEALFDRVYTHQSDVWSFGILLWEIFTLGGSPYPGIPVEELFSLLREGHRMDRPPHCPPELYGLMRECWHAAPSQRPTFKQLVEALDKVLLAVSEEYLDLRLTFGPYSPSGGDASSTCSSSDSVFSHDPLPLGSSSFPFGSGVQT
Conditions: read-out: % control activity remaining.

T3 sequence (P00519 whole entry F317I): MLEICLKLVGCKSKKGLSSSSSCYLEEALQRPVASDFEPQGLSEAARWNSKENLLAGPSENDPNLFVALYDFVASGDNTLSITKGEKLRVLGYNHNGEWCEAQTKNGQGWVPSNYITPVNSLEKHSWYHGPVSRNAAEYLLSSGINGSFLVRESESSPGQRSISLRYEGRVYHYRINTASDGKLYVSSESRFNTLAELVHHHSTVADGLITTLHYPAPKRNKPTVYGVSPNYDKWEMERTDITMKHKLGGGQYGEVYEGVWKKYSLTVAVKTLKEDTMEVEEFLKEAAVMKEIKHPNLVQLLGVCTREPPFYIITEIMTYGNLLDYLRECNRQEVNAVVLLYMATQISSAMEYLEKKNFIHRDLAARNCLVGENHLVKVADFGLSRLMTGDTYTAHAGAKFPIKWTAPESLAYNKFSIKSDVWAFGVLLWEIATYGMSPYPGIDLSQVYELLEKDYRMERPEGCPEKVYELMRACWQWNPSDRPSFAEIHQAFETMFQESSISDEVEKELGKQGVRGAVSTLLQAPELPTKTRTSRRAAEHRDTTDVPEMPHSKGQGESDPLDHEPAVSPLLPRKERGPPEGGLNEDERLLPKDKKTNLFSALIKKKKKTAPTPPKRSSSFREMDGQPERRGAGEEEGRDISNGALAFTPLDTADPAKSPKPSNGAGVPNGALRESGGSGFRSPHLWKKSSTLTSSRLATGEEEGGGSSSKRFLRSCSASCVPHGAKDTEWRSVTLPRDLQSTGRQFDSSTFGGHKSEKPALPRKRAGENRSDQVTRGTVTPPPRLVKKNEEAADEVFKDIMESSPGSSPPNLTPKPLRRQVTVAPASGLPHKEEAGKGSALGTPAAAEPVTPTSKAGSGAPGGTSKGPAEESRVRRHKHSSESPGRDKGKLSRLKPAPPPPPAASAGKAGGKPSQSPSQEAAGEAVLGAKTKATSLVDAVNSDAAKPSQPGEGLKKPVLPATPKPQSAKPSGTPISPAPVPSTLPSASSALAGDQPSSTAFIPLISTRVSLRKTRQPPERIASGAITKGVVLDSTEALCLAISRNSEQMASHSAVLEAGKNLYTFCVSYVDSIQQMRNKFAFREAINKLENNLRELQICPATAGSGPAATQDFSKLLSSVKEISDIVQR

On to `Clc1cc(NCC2CC2)c2ncc(-c3ccc4[nH]ncc4c3)n2n1` [compound 2, 6-Chloro-N-(cyclopropylmethyl)-3-(1H-indazol-5-yl)imidazo[1,2-b]pyridazin-8-amine], for which the remaining binding at 1 µM in test [1] is 86%; in test [2], 90%; in test [3], 93%; in test [4], 62%; in test [5], 82%; in [6], 97%. In addition, the remaining binding at 1 µM in test [7] is 97%; in test [8], 89%; in [9], 96%; in [10], 1.3%; in test [11] it was 85%; in test [12], 94%.

In the case of `O=C(CN1CCOCC1)N[C@H]1CC[C@H](Nc2cc(Cl)nn3c(-c4ccc5[nH]ncc5c4)cnc23)CC1` [compound 26], the remaining binding at 1 µM in [1] turned out to be 99%; in test [2], 90%; in test [3], 8.1%; in test [4], 0.7%; in [5] it was 100%; in test [6] it was 98%. Besides, the remaining binding at 1 µM came out at 90% in test [7]; 100% in test [8]; 86% in [9]; 0.05% in test [10]; 97% in test [11]; 99% in [12]. The inhibition at 1 µM in [10] (read-out: Probe binding inhibited) was more than 90%.

For `CN1CCC(CNc2cc(Cl)nn3c(-c4cc5nc(Nc6ccccc6)[nH]c5cc4F)cnc23)CC1` [compound 31, 6-Chloro-3-(6-fluoro-2-(phenylamino)-1H-benzo[d]imidazol-5-yl)-N-((1-methylpiperidin-4-yl)methyl)imidazo[1,2-b]pyridazin-8-amine], the remaining binding at 1 µM in [1] amounted to 90%; in test [2] it was 92%; in test [3], 76%; in test [4], 85%; in test [5] it was 100%; in test [6], 91%. In addition, the remaining binding at 1 µM amounted to 96% in test [7]; 76% in test [8]; 100% in [9]; 56% in test [10]; 71% in test [11]; 98% in test [12].

Source of the values: paper PMC6437697 (Journal of Medicinal Chemistry, 2019).
